Test results reported in US11072626B2, “Small molecule inhibitors of Galectin-3” (BRISTOL-MYERS SQUIBB COMPANY, priority 2017, dated 2021).
Where two headings read alike, the source gives them in different places.

Biological target: His-tagged recombinant human Gal-3 (hGal-3) (Homo sapiens (Human), UniProt P17931)
Assay: Gal-3 HTRF assay (hGal-3 / B-ASF)
Format: binding
Conditions: 15 nM hGal-3, 15 nM B-ASF
Protocol: ASSAY BUFFER Composition: 25 mM HEPES, 100 mM NaCl, 0.005% Tween 20, 0.05% BSA prepared in sterile water (all reagents from Sigma)
Positive Control: 100% DMSO (1 μl)+His-tagged hGal-3 (20 μL)+B-ASF (20 μl)+Anti-His Terbium Antibody (5 μl)+Strep d2 Antibody (5 μl).
Negative Control: 100% DMSO (1 μl)+His-tagged hGal-3 (20μL)+Anti His Terbium Antibody (5 μl)+Strep d2 Aantibody (5 μl).
PROTOCOL: The Gal-3 assays were performed in 384 white Opti plates in three replicates at room temperature with gentle shaking at 250-300 rpm From the original stocks, […] working stock concentrations of His-tagged recombinant human Gal-3 (hGal-3) and that of B-ASF were prepared. From the working stock, 20 μl of hGal-3 (15 nM) and 20 μl B-ASF (15 nM) were added to the plates. In Negative Control, only hGal-3 was added. A concentration range of 50× working stocks were prepared for the compounds in 100% DMSO. Aliquots of 1 uL of the compounds were added to the wells and pre-incubated with 20 μl hGal-3 per well for 30 minutes Then 20 μl B-ASF were added and incubated for another 1 hour. To detect the signal, 5 μ(final conc. of 1.0 nM) terbium labelled Anti-His antibody was added and incubated for 30 min followed by adding 5 μ(final conc. of 20 nM) Streptavidin d2 and incubation for another 1 hour. The assay signal was detected using HTRF screen protocol (Excitation wavelength=340 nm, emission wavelength=615 nm/665 nm) on Envision 2104 Multilabel Reader. Data analysed using Toolset and Curve Master. Results are reported in the experimental section (IC50 in μM).

[1] = table after Example 20, read-out: hGal3 IC50
[2] = three replicates, room temperature, read-out: hGal3 IC50

His-tagged recombinant human Gal-3 (hGal-3), sequence (P17931 whole entry): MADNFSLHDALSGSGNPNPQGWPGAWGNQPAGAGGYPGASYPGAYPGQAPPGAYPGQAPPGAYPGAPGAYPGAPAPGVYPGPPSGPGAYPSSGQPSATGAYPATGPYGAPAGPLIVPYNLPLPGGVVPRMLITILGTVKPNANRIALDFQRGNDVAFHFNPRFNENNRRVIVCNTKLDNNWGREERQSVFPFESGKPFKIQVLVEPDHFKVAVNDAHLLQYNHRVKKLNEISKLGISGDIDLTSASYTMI

Structure (SMILES) | IC50 [1] [nM] | IC50 [2] [nM]
O=C(CO[C@@H]1[C@@H](n2cc(-c3cc(F)c(F)c(F)c3)nn2)[C@@H](O)[C@@H](CO)O[C@@H]1Sc1ccc(Cl)c(Cl)c1)N1CCCC(F)(F)C1 [Example 24] | 150 | 
O=C(CO[C@@H]1[C@@H](n2cc(-c3cc(F)c(F)c(F)c3)nn2)[C@@H](O)[C@@H](CO)O[C@@H]1Sc1ccc(Cl)c(Cl)c1)N1CCC[C@H]1CO [Example 29] | 72 | 
CC(=O)NC1CN(C(=O)CO[C@@H]2[C@@H](n3cc(-c4cc(F)c(F)c(F)c4)nn3)[C@@H](O)[C@@H](CO)O[C@@H]2Sc2ccc(Cl)c(Cl)c2)C1 [Example 30] | 800 | 
COCCN(C)C(=O)CO[C@@H]1[C@@H](n2cc(-c3cc(F)c(F)c(F)c3)nn2)[C@@H](O)[C@@H](CO)O[C@@H]1Sc1ccc(Cl)c(Cl)c1 [Example 32] | 700 | 
O=C(CO[C@@H]1[C@@H](n2cc(-c3cc(F)c(F)c(F)c3)nn2)[C@@H](O)[C@@H](CO)O[C@@H]1Sc1ccc(Cl)c(Cl)c1)NC1CC2(CC(O)C2)C1 (stereo partly shown) [Example 34] | 660 | 
O=C(O)/C=C\O[C@@H]1[C@@H](n2cc(-c3cc(F)c(F)c(F)c3)nn2)[C@@H](O)[C@@H](CO)O[C@@H]1Sc1ccc(Cl)c(Cl)c1 [Example 40 (cis-isomer), (Z)-3-(((2R,3R,4S,5R,6R)-2-((3,4-dichlorophenyl)thio)-5-hydroxy-6-(hydroxymethyl)-4-(4-(3,4,5-trifluorophenyl)-1H-1,2,3-triazol-1-yl)tetrahydro-2H-pyran-3-yl)oxy)acrylic acid] |  | 680
O=C(O)/C=C/O[C@@H]1[C@@H](n2cc(-c3cc(F)c(F)c(F)c3)nn2)[C@@H](O)[C@@H](CO)O[C@@H]1Sc1ccc(Cl)c(Cl)c1 [Example 40 (trans-isomer), (E)-3-(((2R,3R,4S,5R,6R)-2-((3,4-dichlorophenyl)thio)-5-hydroxy-6-(hydroxymethyl)-4-(4-(3,4,5-trifluorophenyl)-1H-1,2,3-triazol-1-yl)tetrahydro-2H-pyran-3-yl)oxy)acrylic acid] |  | 60
O=C(O)/C=C/O[C@@H]1[C@@H](n2cc(C3CC3)nn2)[C@@H](O)[C@@H](CO)O[C@@H]1Sc1ccc(Cl)c(Cl)c1 [Example 41, (E)-3-(((2R,3R,4S,5R,6R)-4-(4-cyclopropyl-1H-1,2,3-triazol-1-yl)-2-((3,4-dichlorophenyl)thio)-5-hydroxy-6-(hydroxymethyl)tetrahydro-2H-pyran-3-yl)oxy)acrylic acid] |  | 2740
CO[C@@H]1[C@@H](n2cc(C(=O)O)nn2)[C@@H](O)[C@@H](CO)O[C@@H]1Sc1ccc(Cl)c(Cl)c1 [Example 42, 1-((2R,3R,4S,5R,6R)-2-((3,4-dichlorophenyl)thio)-5-hydroxy-6-(hydroxymethyl)-3-methoxytetrahydro-2H-pyran-4-yl)-1H-1,2,3-triazole-4-carboxylic acid] |  | 5000
CO[C@@H]1[C@@H](n2cc(C(=O)NC3CC3)nn2)[C@@H](O)[C@@H](CO)O[C@@H]1Sc1ccc(Cl)c(Cl)c1 [Example 43, N-cyclopropyl-1-((2R,3R,4S,5R,6R)-2-((3,4-dichlorophenyl)thio)-5-hydroxy-6-(hydroxymethyl)-3-methoxytetrahydro-2H-pyran-4-yl)-1H-1,2,3-triazole-4-carboxamide] |  | 2900
CO[C@@H]1[C@@H](n2cc(C(=O)N(C)C3CC3)nn2)[C@@H](O)[C@@H](CO)O[C@@H]1Sc1ccc(Cl)c(Cl)c1 [Example 44, N-cyclopropyl-1-((2R,3R,4S,5R,6R)-2-((3,4-dichlorophenyl)thio)-5-hydroxy-6-(hydroxymethyl)-3-methoxytetrahydro-2H-pyran-4-yl)-N-methyl-1H-1,2,3-triazole-4-carboxamide] |  | 5000
CO[C@@H]1[C@@H](n2nncc2C(=O)O)[C@@H](O)[C@@H](CO)O[C@@H]1Sc1ccc(Cl)c(Cl)c1 [Example 45, 1-((2R,3R,4S,5R,6R)-2-((3,4-dichlorophenyl)thio)-5-hydroxy-6-(hydroxymethyl)-3-methoxytetrahydro-2H-pyran-4-yl)-1H-1,2,3-triazole-5-carboxylic acid] |  | 1520
O=C(O)CO[C@@H]1[C@@H](n2cc(-c3ccccc3)nn2)[C@@H](O)[C@@H](CO)O[C@@H]1Sc1ccc(Cl)c(Cl)c1 [Example 46, 2-(((2R,3R,4S,5R,6R)-2-((3,4-dichlorophenyl)thio)-5-hydroxy-6-(hydroxymethyl)-4-(4-phenyl-1H-1,2,3-triazol-1-yl)tetrahydro-2H-pyran-3-yl)oxy)acetic acid] |  | 1360

The next lines start with the values.

IC50 [1] [nM] | IC50 [2] [nM] | Structure (SMILES)
225 |  | O=C(CO[C@@H]1[C@@H](n2cc(-c3cc(F)c(F)c(F)c3)nn2)[C@@H](O)[C@@H](CO)O[C@@H]1Sc1ccc(Cl)c(Cl)c1)N1CCCCC1 [Example 21]
43 |  | O=C(CO[C@@H]1[C@@H](n2cc(-c3cc(F)c(F)c(F)c3)nn2)[C@@H](O)[C@@H](CO)O[C@@H]1Sc1ccc(Cl)c(Cl)c1)N1CCS(=O)(=O)CC1 [Example 22, 2-(((2R,3R,4S,5R,6R)-2-((3,4-dichlorophenyl)thio)-5-hydroxy-6-(hydroxymethyl)-4-(4-(3,4,5-trifluorophenyl)-1H-1,2,3-triazol-1-yl)tetrahydro-2H-pyran-3-yl)oxy)-1-(1,1-dioxidothiomorpholino)ethan-1-one]
60 |  | O=C(CO[C@@H]1[C@@H](n2cc(-c3cc(F)c(F)c(F)c3)nn2)[C@@H](O)[C@@H](CO)O[C@@H]1Sc1ccc(Cl)c(Cl)c1)N1CCC[C@@H](O)C1 [Example 23]
76 |  | O=C(CO[C@@H]1[C@@H](n2cc(-c3cc(F)c(F)c(F)c3)nn2)[C@@H](O)[C@@H](CO)O[C@@H]1Sc1ccc(Cl)c(Cl)c1)N1CCOCC1 [Example 25, 2-(((2R,3R,4S,5R,6R)-2-((3,4-dichlorophenyl)thio)-5-hydroxy-6-(hydroxymethyl)-4-(4-(3,4,5-trifluorophenyl)-1H-1,2,3-triazol-1-yl)tetrahydro-2H-pyran-3-yl)oxy)-1-morpholinoethan-1-one]
86 |  | O=C1CN(C(=O)CO[C@@H]2[C@@H](n3cc(-c4cc(F)c(F)c(F)c4)nn3)[C@@H](O)[C@@H](CO)O[C@@H]2Sc2ccc(Cl)c(Cl)c2)CCN1 [Example 26]
70 |  | O=C(CO[C@@H]1[C@@H](n2cc(-c3cc(F)c(F)c(F)c3)nn2)[C@@H](O)[C@@H](CO)O[C@@H]1Sc1ccc(Cl)c(Cl)c1)N1CC[C@@H](O)C1 [Example 27]
48 |  | O=C(CO[C@@H]1[C@@H](n2cc(-c3cc(F)c(F)c(F)c3)nn2)[C@@H](O)[C@@H](CO)O[C@@H]1Sc1ccc(Cl)c(Cl)c1)N1CC[C@H](O)C1 [Example 28]
90 |  | O=C(CO[C@@H]1[C@@H](n2cc(-c3cc(F)c(F)c(F)c3)nn2)[C@@H](O)[C@@H](CO)O[C@@H]1Sc1ccc(Cl)c(Cl)c1)N1CC(O)C1 [Example 31]
60 |  | O=C(CO[C@@H]1[C@@H](n2cc(-c3cc(F)c(F)c(F)c3)nn2)[C@@H](O)[C@@H](CO)O[C@@H]1Sc1ccc(Cl)c(Cl)c1)N1CCC[C@H](O)C1 [Example 33, 2-(((2R,3R,4S,5R,6R)-2-((3,4-dichlorophenyl)thio)-5-hydroxy-6-(hydroxymethyl)-4-(4-(3,4,5-trifluorophenyl)-1H-1,2,3-triazol-1-yl)tetrahydro-2H-pyran-3-yl)oxy)-1-((S)-3-hydroxypiperidin-1-yl)ethan-1-one]
 | 50 | O=C(CO[C@@H]1[C@@H](n2cc(-c3cc(F)c(F)c(F)c3)nn2)[C@@H](O)[C@@H](CO)O[C@@H]1[S@+]([O-])c1ccc(Cl)c(Cl)c1)N1CCS(=O)(=O)CC1 [Example 35, 2-(((2R,3R,4S,5R,6R)-2-((R)-(3,4-dichlorophenyl)sulfinyl)-5-hydroxy-6-(hydroxymethyl)-4-(4-(3,4,5-trifluorophenyl)-1H-1,2,3-triazol-1-yl)tetrahydro-2H-pyran-3-yl)oxy)-1-(1,1-dioxidothiomorpholino)ethan-1-one]
 | 70 | O=C(CO[C@@H]1[C@@H](n2cc(-c3cc(F)c(F)c(F)c3)nn2)[C@@H](O)[C@@H](CO)O[C@@H]1[S@@+]([O-])c1ccc(Cl)c(Cl)c1)N1CCC[C@H](O)C1 [Example 36, 2-(((2R,3R,4S,5R,6R)-2-((S)-(3,4-dichlorophenyl)sulfinyl)-5-hydroxy-6-(hydroxymethyl)-4-(4-(3,4,5-trifluorophenyl)-1H-1,2,3-triazol-1-yl)tetrahydro-2H-pyran-3-yl)oxy)-1-((S)-3-hydroxypiperidin-1-yl)ethan-1-one]
 | 80 | O=C(CO[C@@H]1[C@@H](n2cc(-c3cc(F)c(F)c(F)c3)nn2)[C@@H](O)[C@@H](CO)O[C@@H]1[S@@+]([O-])c1ccc(Cl)c(Cl)c1)N1CCOCC1 [Example 37, 2-(((2R,3R,4S,5R,6R)-2-((S)-(3,4-dichlorophenyl)sulfinyl)-5-hydroxy-6-(hydroxymethyl)-4-(4-(3,4,5-trifluorophenyl)-1H-1,2,3-triazol-1-yl)tetrahydro-2H-pyran-3-yl)oxy)-1-morpholinoethan-1-one]
